Results reported in PubChem BioAssay (NCI).
Several values for one entry are separate records, joined by “and”; a condition that tells them apart may be missing. Equal values may be shown once.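 Values below derive from 48-hour exposures of cells grown in 96-well plates, with endpoints linearly interpolated between the two concentrations bracketing the appropriate inhibition level. Here, GI50 denotes the concentration required for 50% inhibition of growth. At the TGI there is no net growth.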

What was measured:
Experiment in all cases: NCI tumour cell line growth inhibition, 48 h
UACC-257 melanoma = tested on: UACC-257 melanoma
MDA-MB-435 = tested on: MDA-MB-435
TK-10 renal = tested on: TK-10 renal
IGROV1 ovarian = tested on: IGROV1 ovarian
HCT-116 colon = tested on: HCT-116 colon
PC-3 prostate = tested on: PC-3 prostate
NCI-H23 lung = tested on: NCI-H23 lung
HT29 colon = tested on: HT29 colon
SNB-75 CNS = tested on: SNB-75 CNS
OVCAR-5 ovarian = tested on: OVCAR-5 ovarian

Structure (SMILES)	GI50 (UACC-257 melanoma)	TGI (UACC-257 melanoma)	GI50 (MDA-MB-435)	TGI (MDA-MB-435)	GI50 (TK-10 renal)	TGI (TK-10 renal)	GI50 (IGROV1 ovarian)	TGI (IGROV1 ovarian)	GI50 (HCT-116 colon) [nM]	TGI (HCT-116 colon)	GI50 (PC-3 prostate)	TGI (PC-3 prostate)	GI50 (NCI-H23 lung)	TGI (NCI-H23 lung)	GI50 (HT29 colon) [µM]	TGI (HT29 colon)	GI50 (SNB-75 CNS) [µM]	TGI (SNB-75 CNS)	GI50 (OVCAR-5 ovarian)	TGI (OVCAR-5 ovarian)
COc1c(O)c2c3c(c1OC)-c1ccccc1CC3N(S(=O)(=O)c1ccc(C)cc1)CC2 (centres undefined)	1.8 µM	> 50 µM	1070 nM	2.92 µM	7.96 µM	> 50 µM	2.13 µM	> 50 µM	1900	> 50 µM	1650 nM	> 50 µM	1.17 µM	2.71 µM	9.34	21 µM	0.933	3.92 µM	2.69 µM	> 50 µM
Cn1ccnc1C(=O)/C=C/c1ccc(C(=O)Nc2c(F)c(F)c(F)c(F)c2F)cc1	3.1 µM	10.4 µM	2020 nM	4.68 µM	1.76 µM	3.69 µM	1.75 µM	3.98 µM	1170	2.48 µM	1620 nM	6.54 µM	2.01 µM	5.35 µM	1.77	3.89 µM	1.33	2.69 µM	1.82 µM	3.9 µM
Nc1nc(=S)c2[nH]cnc2[nH]1	0.708 µM and 5.94 µM	> 70.3 µM and 110 µM and > 250 µM	349 nM and 552 nM	–	0.375 µM and 0.542 µM and 1.26 µM	41.3 µM and 67.7 µM and 9.02 µM	3.23 µM and 6.02 µM	> 96.1 µM and 150 µM and 162 µM	336	–	1280 nM and 3350 nM and 2830 nM	> 100 µM and 185 µM and > 250 µM	0.481 µM and 3.07 µM	–	0.544	121 µM and > 250 µM	–	> 86 µM and 45.8 µM and > 250 µM	0.498 µM and 1.93 µM	> 100 µM and 46 µM and > 250 µM
COc1ccc(/C=C/C(C)=N/OCC(=O)Nc2ccc(Cl)cc2)cc1	3.4 µM	22.2 µM	2440 nM	9.76 µM	7.74 µM	38.9 µM	3.42 µM	51.6 µM	1990	9.39 µM	1840 nM	13.1 µM	2.54 µM	10.2 µM	3.87	18.2 µM	3.21	32.6 µM	5.45 µM	> 77.3 µM
COc1cc(/C=C2\C(=O)N(C)c3ccccc32)cc(OC)c1OC	21.4 µM	55 µM	5020 nM	45.4 µM	31.1 µM	> 100 µM	7.52 µM	53.4 µM	11000	30.7 µM	10500 nM	> 100 µM	21.2 µM	73.1 µM	14.7	> 100 µM	11.5	70 µM	25.2 µM	70.2 µM
COc1cc(OC)cc(-c2ccc(-c3ccc(C(=N)N)cn3)s2)c1	2.29 µM	4.49 µM	1730 nM	3.15 µM	2.06 µM	4.09 µM	1.9 µM	3.73 µM	1900	3.64 µM	1880 nM	3.63 µM	1.78 µM	3.5 µM	2.11	4.89 µM	1.44	2.86 µM	1.69 µM	3.13 µM
C[C@]12CCC3=NCCN3C1=CC[C@@H]1[C@@H]2CC[C@@]2(C)[C@H]1CC[C@]2(C)O	–	73.1 µM	–	> 100 µM	–	> 100 µM	–	> 100 µM	–	> 100 µM	–	> 100 µM	–	> 100 µM	–	> 100 µM	–	> 100 µM	–	> 100 µM
C=C(Cl)[C@@](Cl)(CBr)CC[C@@H](Br)C(C)(C)Cl	–	6.2 µM and 1.83 µM	2500 nM	39.5 µM and 5.5 µM	0.228 µM	0.545 µM and 0.679 µM	14.7 µM	32.2 µM and 32.6 µM	–	1.25 µM and 0.635 µM	280 nM	1.42 µM and 1.29 µM	13.4 µM	30.2 µM and 29.1 µM	1.28	4.48 µM and 0.635 µM	1.35	–	2.45 µM	7.39 µM and 3.22 µM
Cc1ccnc(Nc2ccc([N+](=O)[O-])c(NCCN3CCOCC3)n2)c1	–	–	2.33 nM	0.0068 µM	18.5 µM	62 µM	0.0389 µM and 0.0579 µM	42.4 µM	6.63	–	6.03 nM	39.5 µM	0.0352 µM and 0.0156 µM	40.8 µM	0.00438	18.3 µM	0.00243	20.1 µM	0.074 µM	–
COc1ccc(Cc2nc3cc(OC)c(OC)cc3c(=O)[nH]2)cc1	6.42 µM	32.1 µM	5150 nM	57.1 µM	11.8 µM	54 µM	4.61 µM	> 67.2 µM	4780	> 100 µM	22000 nM	> 100 µM	4.03 µM	33.1 µM	4.73	> 100 µM	9.79	40.1 µM	3.74 µM	> 74.1 µM
O=C1CCS/C(=N/S(=O)(=O)c2ccc(N3N=C4c5ccccc5CC4C3c3cccs3)cc2)N1Cc1ccccc1 (centres undefined)	24.2 µM	50.7 µM	21100 nM	44.6 µM	17.7 µM	37.6 µM	17.4 µM	52.4 µM	20300	34.5 µM	22400 nM	55.2 µM	16.7 µM	31.8 µM	37	> 100 µM	30.2	78.7 µM	22.4 µM	44.9 µM
COc1ccc(/C(C)=C(\c2ccc(Cl)cc2)c2ccc(OCCN3CCCCCC3)cc2)cc1F	3.4 µM	7.87 µM	2780 nM	5.77 µM	4.28 µM	14 µM	3.07 µM	9.34 µM	1980	4.51 µM	3800 nM	15 µM	3.07 µM	10.4 µM	0.611	> 16.7 µM	4.16	13.3 µM	2.95 µM	8.18 µM
COC(=O)[C@H](Cc1cn(C)cn1)NC(=O)[C@@H](NC(=O)Nc1cc(C(F)(F)F)cc(C(F)(F)F)c1)C(C)C	> 10 µM	> 10 µM	6110 nM	> 10 µM	9.9 µM	> 10 µM	6.15 µM	> 10 µM	1820	3.55 µM	4350 nM	> 10 µM	4.6 µM	> 10 µM	2.23	4.89 µM	6.44	> 10 µM	> 10 µM	> 10 µM
CCCCCCCCCCCCOC1C(C(CC(=O)N2CCN(Cc3ccc4c(c3)OCO4)CC2)NS(=O)(=O)c2cc(Cl)cc(Cl)c2)OC2OC(C)(C)OC21 (centres undefined)	59.1 µM	> 100 µM	48000 nM	> 100 µM	58 µM	> 100 µM	14 µM	> 100 µM	6690	36.7 µM	4040 nM	> 100 µM	17.4 µM	> 100 µM	4.82	31.1 µM	> 45	> 100 µM	6.49 µM	> 100 µM
O=C(Oc1ccc2c(c1)CN(Cc1ccccc1)CO2)c1ccccc1	–	29.5 µM	–	54.2 µM	–	29.8 µM	–	27 µM	–	30.6 µM	–	29.4 µM	–	30 µM	–	40.8 µM	–	32.5 µM	–	33.6 µM
CC1=C(CNO)C2=C(C)C3(CC3)[C@@](C)(O)C(=O)C2=C1	2.78 µM	7.64 µM	11400 nM	39 µM	3.24 µM	8.4 µM	0.898 µM	7 µM	1850	5.21 µM	1910 nM	19.6 µM	0.473 µM	2.72 µM	2.34	58.8 µM	1.38	2.86 µM	1.4 µM	17.4 µM
COc1ccc(/C=C\c2cc(OC)c(OC)c(OC)c2)c(NS(=O)(=O)c2ccc(C(C)(C)C)cc2)c1O	13.2 µM	32.1 µM	42.7 nM	0.735 µM	1.3 µM	37.1 µM	0.986 µM	35.8 µM	365	13.6 µM	369 nM	17 µM	0.497 µM	17.5 µM	3.51	18.6 µM	0.231	14.1 µM	0.626 µM	22.3 µM
CNCc1cccc2c1OCCOCCOCCC(C)S(=O)(=O)c1ccc(cc1)-c1cnc(N)c(n1)C(=O)N2 (centres undefined)	1.91 µM	4.55 µM	1570 nM	3.3 µM	1.37 µM	8.25 µM	0.659 µM	4.78 µM	1180	3.35 µM	1490 nM	17.9 µM	3.71 µM	18.9 µM	1.44	8.99 µM	0.119	1.59 µM	3.82 µM	11.4 µM
C#Cc1cccc(NC(=O)C2CCCN(C(=O)CCl)C2)c1 (centres undefined)	> 82.5 µM	> 82.5 µM	69800 nM	> 82.5 µM	> 82.5 µM	> 82.5 µM	14.3 µM	33.3 µM	45900	> 82.5 µM	> 82500 nM	> 82.5 µM	21.8 µM	> 82.5 µM	> 82.5	> 82.5 µM	> 82.5	> 82.5 µM	> 82.5 µM	> 82.5 µM
COC(=O)C(=O)C(C(=O)C(=O)Nc1ccc(C)c(C)c1)c1nc2ccc([N+](=O)[O-])cc2[nH]c1=O (centres undefined)	–	> 100 µM	–	> 100 µM	–	> 100 µM	–	> 100 µM	–	> 100 µM	–	> 100 µM	–	> 100 µM	–	> 100 µM	–	> 100 µM	–	> 100 µM
NC(N)=N/N=C(/c1ccccc1)c1ccccc1F	15.8 µM	38.1 µM	347 nM	3.81 µM	9.86 µM	47.2 µM	2.89 µM	> 50 µM	2370	12.3 µM	4700 nM	> 57.7 µM	5.02 µM	27.8 µM	0.628	11.5 µM	0.661	21.7 µM	7.49 µM	33.8 µM
c1cncc(C2ONC3=NCCN32)c1 (centres undefined)	> 100 µM	> 100 µM	50800 nM	> 100 µM	10.9 µM	70.6 µM	24 µM	> 100 µM	34600	> 100 µM	30800 nM	> 100 µM	54 µM	> 100 µM	35.1	> 100 µM	22.4	98.1 µM	58.3 µM	> 100 µM
Fc1ccc(-c2nn3c(COc4ccc(Cl)cc4)nnc3s2)cc1Oc1ccccc1	41.6 µM	> 100 µM	30800 nM	> 71.1 µM	13.8 µM	30.3 µM	22.2 µM	> 54.1 µM	20600	> 52.3 µM	73.5 nM	13.6 µM	20.4 µM	40.2 µM	> 47.9	> 74.8 µM	61	> 100 µM	24.5 µM	> 59.1 µM
OCCCCC#Cc1ccccc1C#Cc1ccc(C(F)(F)F)cc1	14.9 µM	28.2 µM	16300 nM	31.8 µM	11.9 µM	25.3 µM	17.6 µM	32 µM	16900	35.8 µM	17500 nM	35 µM	16.8 µM	32.4 µM	3.43	18.1 µM	15.8	30.2 µM	16.9 µM	31.8 µM
Cc1nc2c(Br)cc(Br)cc2c(=O)n1-c1ccccc1NC1OCC(O)C(O)C1O (centres undefined)	–	> 100 µM and 99.3 µM	–	> 100 µM	–	> 100 µM	–	> 100 µM	–	65.7 µM and 40.2 µM	–	> 100 µM	–	> 100 µM	–	66.2 µM and 53.5 µM	–	> 100 µM and 53.2 µM	–	> 100 µM
C=C1CC/C=C(\C)CC[C@H](C(=C)C)[C@@H](O)/C=C(/CO)CCC1O (some centres undefined)	> 100 µM	> 100 µM	40500 nM	> 100 µM	17.4 µM	68.7 µM	44.9 µM	> 100 µM	35400	> 100 µM	43400 nM	> 100 µM	80.6 µM	> 100 µM	> 100	> 100 µM	> 100	> 100 µM	> 100 µM	> 100 µM
